Experimental data as given in patent US9891239B2, “Modulators of pharmacokinetic properties of therapeutics” (Gilead Sciences, Inc., priority 2007, dated 2018).
pEC50: −log10 of the molar value.

Test system: wild-type HIV-1 strain IIIB
Assay: Anti-HIV-1 cell culture assay (EC50), XTT readout of cytopathic effect in MT2 cells
Type: cell-based
Settings: Human immunodeficiency virus 1, IIIB, MT2, 120 h, read-out: protease inhibition activity represented by HIV EC50
Protocol: The assay is based on quantification of the HIV-1-associated cytopathic effect by a […] detection of the viability of virus-infected cells in the presence or absence of tested inhibitors. HIV-1-induced cell death was determined using a metabolic substrate 2,3-bis(2-methoxy-4-nitro-5-sulfophenyl)-2H-tetrazolium-5-carboxanilide (XTT) which is converted only by intact cells into a product with specific absorption characteristics as described by Weislow O S, Kiser R, Fine D L, Bader J, Shoemaker R H and Boyd M R, J. Natl. Cancer Inst. 81, 577 (1989) (herein incorporated by reference in its entirety for all purposes). […]
To determine the antiviral activity of the tested inhibitors, a substrate XTT solution (6 mL per assay plate) at a concentration of 2 mg/mL in a phosphate-buffered saline pH 7.4 was heated in water-bath for 5 min at 55° C. before 50 μl of N-methylphenazonium methasulfate (5 μg/mL) was added per 6 mL of XTT solution. […] Viability, as determined by the amount of XTT metabolites produced, was quantified spectrophotometrically by the absorbance at 450 nm (with subtraction of the background absorbance at 650 nm). […]

With CC(C)c1nc(CN(C)C(=O)N[C@@H](CCN2CCOCC2)C(=O)N[C@H](CC[C@H](Cc2ccccc2)NC(=O)OCc2cncs2)Cc2ccccc2)cs1 [Example S] as the molecule, how does the pEC50 read?
Its pEC50 is under 4.52.
